“Also recorded” adds a separate entry of the source.

The subject of data set [1] is p53. In kind it is biochemical. To be noted: Beas-2B lysates with metals 30 min, then chelator 1 hr; naïve and loaded lysates; FIG. 23.
A further data set has as its system Beas-2B cells. In words: Resazurin cell survival assay, metal-induced chemoresistance and chelators. The data set is classed as cell-based. To be noted: for Reversal of metal-induced chemoresistance to doxorubicin, non-saturating chelator dose: DMPS 40 μM, EDTA 20 μM, FIG. 5. On the procedure: (§1) Resazurin cell survival assays were used to determine cell survival upon chemotherapeutic and chelator challenge. 2×10^3 cells were seeded in 100 μl in 96 well plates. 24 hrs later medium was replaced with 90 μl of metal mixtures or control medium for another 24 hrs. Next a combination of chelators and chemotherapy as indicated in the figures was prepared and added as an additional 10 μl to the cells. Cells were then incubated for 72 hr (Beas-2B) or 96 hr (A549 and MCF7). A stock solution of resazurin (Sigma) was made as 880 μM in PBS adjusted to pH 7.8/filtered 0.2 μm and kept for 6 months at 4° C. Medium was replaced with 75 μl of resazurin solution (final concentration 44 μM). Cells were incubated at 37° C. for 3-4 hrs and fluorescence emission was measured at 583 nm with excitation at 555 nm using a spectrophotometer (Beckman). To test the effects of metals on doxorubicin directly, doxorubicin was incubated with metals in solution 24 hrs as a 10× solution, prior to adding to cells, whereas control cells were incubated in metals as described before.
IC50 values were calculated using Graphpad Prism. Error bars represent standard deviation of triplicate measurements.
Background: Resazurin is reduced to fluorescent resorufin, in cell work by metabolically active cells.

Data set [2] deals with p53. In words: p53 folding status in cells (immunoprecipitation with folding antibodies / western blot). In kind it is cell-based. To be noted: Beas-2B cells incubated with metals in presence or absence of chelator; FIG. 20, 21. On the procedure:
(§2) Cells were seeded in 6 well plates at 30% cell density. 24 hrs later, medium was replaced with the metal mixtures as indicated. Cells were incubated for 24 hrs and lysed with 100 μl NP-40 lysis buffer (100 mM NaCl 100 mM Tris pH8, 1% NP-40) for 15 min on ice. Cell pellets were discarded in centrifugation (10 min max) and 10% of input was taken for western blot and mixed with 4×SB. The remaining lysate was subjected to immunoprecipitation with p53 Ab240 Ab (1 ul per condition) using 30 μl NP-40 buffer washed goat-anti-mouse magnetic Dynabeads (Thermo Fisher). Lysates and beads were tumbled at 4° C. for 2 hrs and washed 3× with NO-40 buffer. Beads were taken up in 2×SB and together with inputs denatured at 95° C. in a heat block. 8% SDS page gels were used to run all of the samples on western blot. Gels were transferred on nitrocellulose membrane, blocked with milk (TBS-Tween) for 1 hr tumbling and incubated in p53 DO-1 (Santa Cruz Ab, 1:2000) ON at 4° C. The membrane was washed 3× with TBS-tween and secondary Ab (anti-mouse 700, Li-Cor) was used 1:10.000 to incubate the blot for 1 hr at room temperature. The blot was washed with TBS-tween 3× and the signal was measured in a Li-Cor Odyssey. Quantification was measured in the software of Li-Cor and plotted corrected for input levels of each sample.
(In general: A western blot detects proteins with antibodies after separation by electrophoresis.)

A further data set deals with A549 lung cancer cells. In words: Resazurin cell survival assay, metal-induced chemoresistance and chelators. Further details: dose or concentration left out as unconfirmed. To be noted: FIG. 3C. The data set is classed as cell-based. On the procedure:
as §1

The next data set concerns MCF7 breast cancer cells. The data set is described as above. In kind it is cell-based. Set-up: dose or concentration left out as unconfirmed. To be noted: FIG. 3B. On the procedure:
as §1

A further data set deals with A549 p53 KO cells. In words: Resazurin cell survival assay in p53 KO clone. In kind it is cell-based. To be noted: p53 KO clone of A549; DMPS (150 μM); doxorubicin; FIG. 3D. As to the method: A549, MCF7 and Beas-2B cells were obtained from ATCC (https://www.atcc.org). Cells were maintained in DMEM high Glucose (Invitrogen) and 10% FCS (Gibco) at 37° C. and 5% CO2. A549 p53 KO cells were generated using a CRISPR p53 KO construct (pLV-U6g-EPCG with target sequence TCCATTGCTTGG GACGGCAAGG, Sigma). Cell lines were selected for GFP expression using FACS sorting followed by clonal selection in neomycin (600 ng/ml, Sigma).
as §1, with “To test the effects of metals on doxorubicin directly, doxorubicin was incubated with metals in solution 24 hrs as a 10× solution, prior to adding to cells, whereas control cells were incubated in metals as described before.” left out

A further data set deals with H2170 cells. In words: Cell survival assay, metal exposure and chelation treatment. The data set is classed as cell-based. To be noted: H2170 pre-treated with metals 1:128, then DMPS and doxorubicin for 72 hrs; FIG. 16. On the procedure: as §1
Overall, the methods disclosed in the first example were used in the second example as well. […]
(§3) Hep3B and H2177 cells were obtained from ATCC and were maintained in DMEM high Glucose (Invitrogen) and 10% FCS (Gibco) at 37° C. and 5% CO2. […] Cells were subsequently counted and added to 96 well plates for survival assays as previously described. […]

Another data set relates to BxPC-3 cells. The description is as above. The data set is classed as cell-based. To be noted: BxPC3 pre-treated with metals 1:128; for Reversal of metal-induced chemoresistance to 5-FU: 150 μM chelator and 5-FU for 72 hrs, FIG. 17; for Effect of chelator on resistance/survival with nab-paclitaxel: 150 μM chelator and nab-paclitaxel for 72 hrs, FIG. 18. As to the method:
as §1
Overall, the methods disclosed in the first example were used in the second example as well.

In another data set the test system is WT p53. Nature of the data set: p53 folding in transfected Hep3B cells. The data set is classed as cell-based. To be noted: Hep3B transfected with WT p53; metals followed by miaDMSA; FIG. 22. On the procedure:
as §2, with “The membrane was washed 3× with TBS-tween and secondary Ab (anti-mouse 700, Li-Cor) was used 1:10.000 to incubate the blot for 1 hr at room temperature.” left out
as §3

The subject of a further data set is 158 mutant p53. In words: p53 folding in transfected Hep3B cells. The data set is classed as cell-based. To be noted: Hep3B transfected with 158 mutant p53; metals followed by miaDMSA; FIG. 22. On the procedure: as §2, with “The membrane was washed 3× with TBS-tween and secondary Ab (anti-mouse 700, Li-Cor) was used 1:10.000 to incubate the blot for 1 hr at room temperature.” left out
as §3

Setting [3] is: metal-loaded Beas-2B, DMPS 150 μM, EDTA 75 μM (equivalent chelation capacity), alone or combined, FIG. 4.
Where [4] appears, read: Beas-2B pre-treated with metals 1:128, then chelator and doxorubicin for 72 hrs, FIG. 14, 15.

For `O=C(O)CN(CCN(CC(=O)O)CC(=O)O)CC(=O)O` [EDTA, ethylenediaminetetraacetic acid], in the data set on p53 [1], the “Refolding of unfolded p53” value is “clearly able to refold some of the p53”. The “Reversal of metal-induced chemoresistance to doxorubicin, non-saturating chelator dose” value in the data set on Beas-2B cells (alone or combined) is recorded as “not able to restore chemosensitivity substantially”. Further, the “Reversal of metal-induced chemoresistance to doxorubicin” value in the data set with Beas-2B cells (setting [3]) is “able to restore chemosensitivity although not to the extent as seen for DMPS; also recorded: reversed the resistance only partially”.

As for `O=S(=O)(O)CC(S)CS` (centres unmarked) [DMPS, 2,3-dimercapto-1-propanesulfonic acid], the “Prevention of metal-induced unfolding of p53” value with p53 [2] is “prevents unfolding”. Besides, in the data set with Beas-2B cells (Beas2B cells primed with 1:128 and 1:256 metals, DMPS 150 μM, FIG. 3A), the “Restoration of sensitivity to doxorubicin (reversal of metal-induced chemoresistance)” value is listed as “completely restored”. In addition, the “Reversal of metal-induced chemoresistance to doxorubicin, non-saturating chelator dose” value with Beas-2B cells (alone or combined) was “not able to restore chemosensitivity substantially”. The “Reversal of metal-induced chemoresistance to doxorubicin” value in the data set with Beas-2B cells (setting [3]) is on record as “almost completely restored; also recorded: reversed chemoresistance completely”; with A549 lung cancer cells, “reversed the chemoresistance completely”; with MCF7 breast cancer cells it was “reversed the chemoresistance completely”; in the data set with H2170 cells it was “only partially reversed”. Besides, the “Metal induced chemoresistance and its reversal by chelator” value in the data set with A549 p53 KO cells is reported as “less pronounced than in native A549 cells”.

Take `CC(C)CCOC(=O)[C@@H](S)[C@@H](S)C(=O)O` [miaDMSA, monoisoamylDMSA]: in the data set with p53 [1], the “Refolding of unfolded p53” value is recorded as “clearly able to refold some of the p53”. Moreover, the “Reversal of metal-induced chemoresistance to doxorubicin” value in the data set on Beas-2B cells (setting [4]) is on record as “highly potent chelator; also recorded: completely reversed”. Also, in the data set on BxPC-3 cells, the “Reversal of metal-induced chemoresistance to 5-FU” value is “reversed” and the “Effect of chelator on resistance/survival with nab-paclitaxel” value is “reduce survivability; also recorded: reduction of resistance”. Moreover, the “Prevention of metal-induced unfolding of p53” value with WT p53 is “prevented or reduced”. The “Prevention of metal-induced unfolding of p53” value in the data set on 158 mutant p53 is recorded as “prevented or reduced”.

In the case of `COc1cccc2c1C(=O)c1c(O)c3c(c(O)c1C2=O)C[C@@](O)(C(=O)CO)C[C@@H]3O[C@H]1C[C@H](N)[C@H](O)[C@H](C)O1` [doxorubicin], the “IC50 of doxorubicin in metal-loaded cells relative to cells without added metals” value with Beas-2B cells (Beas-2B loaded with metals (1:128), FIG. 6) is on record as “more than 10 times”. In addition, the IC50 of doxorubicin entry in the data set on Beas-2B cells (Beas-2B without added metals, FIG. 6) was “low”.

Consider `O=C(O)C(S)C(S)C(=O)O` (centres unmarked) [DMSA, 2,3-dimercaptosuccinic acid], for which the “Prevention of metal-induced unfolding of p53” value with p53 [2] is reported as “prevents unfolding”. The “Reversal of metal-induced chemoresistance to doxorubicin” value in the data set with Beas-2B cells (setting [4]) is on record as “only partially reversed”. Further, in the data set on BxPC-3 cells, the “Reversal of metal-induced chemoresistance to 5-FU” value is “reversed” and the “Effect of chelator on resistance/survival with nab-paclitaxel” value was “reduce survivability”.

Source of the values: patent US20250381163A1, “Chelating Agents for Use in Cancer Therapy” (priority 2022, published 2025).
